Measured values as given in ChEMBL document CHEMBL1133589, “N-3-substituted imidazoquinazolinones: potent and selective PDE5 inhibitors as potential agents for treatment of erectile dysfunction” (J Med Chem, 2000).

Experiments:
[1] = Relative ihibition of bovine retina PDE6 and PDE5 of human platelets
[2] = Relative inhibition of PDE4 of rat kidney and PDE5 of human platelets
[3] = Relative inhibition of bovine heart PDE1 and PDE5 of human platelets
[4] = Relative inhibition of PDE2 of rat kidney and PDE5 of human platelets
[5] = molecular target: cGMP-specific 3',5'-cyclic phosphodiesterase (Homo sapiens, UniProt O76074); experiment: Inhibition of phosphodiesterase type 5 (PDE5) of human platelets

IC50 ratio [1]	IC50 ratio [2]	IC50 ratio [3]	IC50 ratio [4]	IC50 [5] [nM]	SMILES
2	1600	90	1300	–	CCCOc1ccc(S(=O)(=O)N2CCN(C)CC2)cc1-c1nc(O)c2cc3[nH]cnc3cc2n1
60	4200	> 100000	> 100000	0.48	CCCOc1ccc(C(N)=O)cc1-c1nc(O)c2cc3c(cc2n1)ncn3Cc1ccc(F)cc1
1	100	200	360	44	CCCOc1ccccc1-c1nc(O)c2cc3[nH]cnc3cc2n1
20	600	3400	> 10000	5.3	CCCOc1ccc(S(=O)(=O)N2CCN(C)CC2)cc1-c1nc(O)c2cc3c(cc2n1)ncn3Cc1ccccc1
